# Reference: the supplement of paper PMC10307832
# What was measured:
# Assay in all cases: relative viability (nuclei count vs DMSO), 5 days (fraction); higher = more cells survive
# [1] = system: NCI-H1993
# Outline: (§1)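 One day after seeding in 1536-well plates, lung cancer cell lines were dosed by pin tool. Dosing was either single-drug or a fixed anchor-drug dose plus five library-drug doses (not always all listed) in √10 steps. After 5 days, nuclei were stained in one fix-and-stain step and counted on 4× images, and relative viability is the nuclei count of treated wells over that of vehicle wells, given as the median of duplicate plates.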
# [2] = system: NCI-H727
# Outline: as §1
# [3] = system: BEN
# Outline: as §1
# [4] = system: HOP-62
# Outline: as §1
# [5] = system: COR-L 105
# Outline: as §1
# [6] = system: HARA
# Outline: as §1
# [7] = system: HCC-827
# Outline: as §1
# [8] = system: HCC-44
# Outline: as §1
# [9] = system: SK-MES-1
# Outline: as §1
# [10] = system: NCI-H2009
# Outline: as §1
# [11] = system: PC-3 [JPC-3]
# Outline: as §1
# [12] = system: HCC-366
# Outline: as §1
# [13] = system: LCLC-97TM1
# Outline: as §1
# [14] = system: NCI-H2126
# Outline: as §1
# [15] = system: LU99A
# Outline: as §1
# [16] = system: HCC-15
# Outline: as §1
# [17] = system: LC-2-ad
# Outline: as §1
# [18] = system: NCI-H2170
# Outline: as §1
# [19] = system: COR-L23
# Outline: as §1
# [20] = system: NCI-H2087
# Outline: as §1
# [21] = system: LXF-289
# Outline: as §1
# [22] = system: PC-14
# Outline: as §1
smiles,measurement,setting,value
O=C(O)CCCCC(CCSCc1ccccc1)SCc1ccccc1 (centres undefined) [CPI-613] + Nc1ncn([C@H]2C[C@H](O)[C@@H](CO)O2)c(=O)n1 [Decitabine] (partner 2 µM),relative viability,[1]; first compound 5 µM,0.643
same,relative viability,[1]; first compound 15.81 µM,0.56
same,relative viability,[1]; first compound 50 µM,0.679
same,relative viability,[1]; first compound 158.11 µM,0.61
same,relative viability,[1]; first compound 500 µM,0.327
same,relative viability,[2]; first compound 5 µM,0.803
same,relative viability,[2]; first compound 15.81 µM,0.786
same,relative viability,[2]; first compound 50 µM,0.894
same,relative viability,[2]; first compound 158.11 µM,0.776
same,relative viability,[2]; first compound 500 µM,0.828
same,relative viability,[3]; first compound 5 µM,0.773
same,relative viability,[3]; first compound 15.81 µM,0.649
same,relative viability,[3]; first compound 50 µM,0.802
same,relative viability,[3]; first compound 158.11 µM,0.625
same,relative viability,[3]; first compound 500 µM,0.608
same,relative viability,[4]; first compound 5 µM,0.186
same,relative viability,[4]; first compound 15.81 µM,0.235
same,relative viability,[4]; first compound 50 µM,0.191
same,relative viability,[4]; first compound 158.11 µM,0.173
same,relative viability,[4]; first compound 500 µM,0.0675
same,relative viability,[5]; first compound 5 µM,0.68
same,relative viability,[5]; first compound 15.81 µM,0.671
same,relative viability,[5]; first compound 50 µM,0.668
same,relative viability,[5]; first compound 158.11 µM,0.375
same,relative viability,[5]; first compound 500 µM,0.22
same,relative viability,[6]; first compound 5 µM,0.494
same,relative viability,[6]; first compound 15.81 µM,0.467
same,relative viability,[6]; first compound 50 µM,0.575
same,relative viability,[6]; first compound 158.11 µM,0.289
same,relative viability,[6]; first compound 500 µM,0.111
same,relative viability,[7]; first compound 5 µM,0.363
same,relative viability,[7]; first compound 15.81 µM,0.31
same,relative viability,[7]; first compound 50 µM,0.359
same,relative viability,[7]; first compound 158.11 µM,0.301
same,relative viability,[7]; first compound 500 µM,0.29
same,relative viability,[8]; first compound 5 µM,0.877
same,relative viability,[8]; first compound 15.81 µM,1.01
same,relative viability,[8]; first compound 50 µM,0.922
same,relative viability,[8]; first compound 158.11 µM,0.828
same,relative viability,[8]; first compound 500 µM,0.779
same,relative viability,[9]; first compound 5 µM,0.422
same,relative viability,[9]; first compound 15.81 µM,0.367
same,relative viability,[9]; first compound 50 µM,0.377
same,relative viability,[9]; first compound 158.11 µM,0.19
same,relative viability,[9]; first compound 500 µM,0.103
same,relative viability,[10]; first compound 5 µM,0.393
same,relative viability,[10]; first compound 15.81 µM,0.397
same,relative viability,[10]; first compound 50 µM,0.385
same,relative viability,[10]; first compound 158.11 µM,0.228
same,relative viability,[10]; first compound 500 µM,0.0406
same,relative viability,[11]; first compound 5 µM,0.799
same,relative viability,[11]; first compound 50 µM,0.879
same,relative viability,[11]; first compound 158.11 µM,0.716
same,relative viability,[11]; first compound 500 µM,0.622
same,relative viability,[12]; first compound 5 µM,0.339
same,relative viability,[12]; first compound 15.81 µM,0.31
same,relative viability,[12]; first compound 50 µM,0.381
same,relative viability,[12]; first compound 158.11 µM,0.202
same,relative viability,[12]; first compound 500 µM,0.0146
same,relative viability,[13]; first compound 5 µM,0.251
same,relative viability,[13]; first compound 15.81 µM,0.213
same,relative viability,[13]; first compound 50 µM,0.261
same,relative viability,[13]; first compound 158.11 µM,0.0572
same,relative viability,[13]; first compound 500 µM,0.051
same,relative viability,[14]; first compound 5 µM,0.536
same,relative viability,[14]; first compound 15.81 µM,0.578
same,relative viability,[14]; first compound 50 µM,0.599
same,relative viability,[14]; first compound 158.11 µM,0.188
same,relative viability,[14]; first compound 500 µM,0.132
same,relative viability,[15]; first compound 5 µM,0.886
same,relative viability,[15]; first compound 15.81 µM,0.79
same,relative viability,[15]; first compound 50 µM,0.815
same,relative viability,[15]; first compound 158.11 µM,0.79
same,relative viability,[15]; first compound 500 µM,0.219
same,relative viability,[16]; first compound 5 µM,0.594
same,relative viability,[16]; first compound 15.81 µM,0.592
same,relative viability,[16]; first compound 50 µM,0.547
same,relative viability,[16]; first compound 158.11 µM,0.265
same,relative viability,[16]; first compound 500 µM,0.0057
same,relative viability,[17]; first compound 5 µM,0.781
same,relative viability,[17]; first compound 15.81 µM,0.859
same,relative viability,[17]; first compound 50 µM,0.705
same,relative viability,[17]; first compound 158.11 µM,0.578
same,relative viability,[17]; first compound 500 µM,0.0132
same,relative viability,[18]; first compound 5 µM,0.458
same,relative viability,[18]; first compound 15.81 µM,0.484
same,relative viability,[18]; first compound 50 µM,0.486
same,relative viability,[18]; first compound 158.11 µM,0.342
same,relative viability,[18]; first compound 500 µM,0.199
same,relative viability,[19]; first compound 5 µM,0.494
same,relative viability,[19]; first compound 15.81 µM,0.367
same,relative viability,[19]; first compound 50 µM,0.469
same,relative viability,[19]; first compound 158.11 µM,0.229
same,relative viability,[19]; first compound 500 µM,0.0175
same,relative viability,[20]; first compound 5 µM,0.261
same,relative viability,[20]; first compound 15.81 µM,0.218
same,relative viability,[20]; first compound 50 µM,0.221
same,relative viability,[20]; first compound 158.11 µM,0.115
same,relative viability,[20]; first compound 500 µM,0.0094
same,relative viability,[21]; first compound 5 µM,0.369
same,relative viability,[21]; first compound 15.81 µM,0.375
same,relative viability,[21]; first compound 50 µM,0.365
same,relative viability,[21]; first compound 158.11 µM,0.272
same,relative viability,[21]; first compound 500 µM,0.0864
same,relative viability,[22]; first compound 5 µM,0.266
same,relative viability,[22]; first compound 15.81 µM,0.201
same,relative viability,[22]; first compound 50 µM,0.23
same,relative viability,[22]; first compound 158.11 µM,0.109
same,relative viability,[22]; first compound 500 µM,0.0133
